Patent US20100184653A1, “Derivates of Polyethylene Glycol Modified Thymosin Alpha 1” (Jiangsu Hansen Pharmaceutical Co., Ltd., priority 2008, published 2010)
Each block holds one compound with its values, some of them ahead of it. Residues, ends and D or L forms follow the SMILES beside them. No end group written: not given here.

Assays:
[1] = system: T-lymphocytes (mice's spleen cells); assay: ConA-induced IFN-γ production by mouse spleen T lymphocytes, ELISA of culture supernatant; assay type: cell-based, ICR mice; design: Mean (IFN-γ, ConA-induced cytokine production): unit not given here; conditions: for Mean (IFN-γ, ConA-induced cytokine production): 24 hours
Experimental: (§1) With Zadaxin as a positive control, the effect of the samples on T-lymphocytes producing cytokines were tested to confirm if the samples could adjust T-lymphocyte immune activity and the extent thereof.
(§2) In the lymphocytes cultured in vitro, T cell can be activated by the stimulation of mitosis Concanavalin A and brings change of cells' behavior such as cytokine synthesis, cytokine receptor expression, cell differentiation and cell proliferation. The generation of cytokine and proliferation of the cell are response of the immune cell function and cell activation. Detection means is reliable, simple, and with good repeatability, therefore, evaluating the samples' effect to the function of T lymphocytes by detecting cytokine generation and cell proliferation has been widely applied.
(§3) Preparation of spleen cell suspension: mice's spleen was obtained under aseptic condition, which was ground with frosted glass. The spleen cell suspension was thus obtained. After red blood lysis, the spleen cell suspension was washed three times, counted (live cells being more than 95%). The concentration of spleen cell was adjusted to 5×10^6 cells/ml with 10% FBS (bovine serum) RPMI1640 culture fluid.
(§4) The concentration of mice's Spleen cells was adjusted to 5×10^6 cells/ml, and then distributed it into 24 wells plate with 1 ml/well; samples with various concentrations were added into the plate respectively with 0.5 ml/well; and then ConA (20 ug/ml) was added with 0.5 ml/well. The samples were kept at 37° C. in CO2 incubator for 24 hours, centrifuged and collected culture supernatant.
(§5) Antibody Coating: The antibody was diluted with coating buffer and then was added into 96 well ELISA plates with 50 μL each wells. The plate was left overnight at […].
(§6) Blocking: The antibody coating buffer was removed, and the plate was washed 3 times with washing solution (PBS/Tween solution). 100 μL of blocking buffer (PBS/10% FBS) was added to each wells of the plates. The plate was incubated at room temperature for 1 hour.
(§7) Standards and samples: The blocking buffer was removed from the plates, which was washed 3 times with washing solution (PBS/Tween solution) and followed by adding standards and samples with 50 μL each wells. The plate was incubated at room temperature for 2 hours.
(§8) Detection of Antibody and Enzyme: The standards and samples were removed from the plates. The plate was washed 3 times with washing solution (PBS/Tween solution). The diluted detective antibody and enzyme HRP were added into the plate with 50 μL each wells. The plate was incubated at room temperature for 1 hour.
(§9) Substrate Staining: The diluted detection antibody and enzyme HRP were removed from the plate which was then washed 3 times with washing solution (PBS/Tween solution). The substrate resolved in citricic acid/hydrogen peroxide (TMB) was added into the plate with 50 μL each wells. The plate was incubated at room temperature away from the light for 30 minutes. After being stained, stop solution 2N H2SO4 was added into the plate with 25 μL per well.
(§10) OD Detection: The plate was placed into enzyme-labeled instrument and read OD values at 450 nm (calibrated value of 570 nm).

[2] = system: T-lymphocytes (mice's spleen cells); assay: ConA-induced IL-2 production by mouse spleen T lymphocytes, ELISA of culture supernatant; assay type: cell-based, ICR mice; design: unit not given here; conditions: 24 hours
Experimental: as §1, §2, §3, §4, §5, §6, §7, §8, §9, §10

[3] = Pharmacokinetic test, half life after hypodermic injection; conditions: in vivo, subcutaneous
[4] = in body; cited from earlier work

Compound: Ac-Ser-Asp-Ala-Ala-Val-Asp-Thr-Ser-Ser-Glu-Ile-Thr-Thr-Lys-Asp-Leu-Lys-Glu-Lys-Lys-Glu-Val-Val-Glu-Glu-Ala-Glu-Asn-Gly-Gly-Cys-PEG40K (Ac-SDAAVDTSSEITTKDLKEKKEVVEEAENGG-{C(branched 40K mPEG-maleimide)}) [T-GG-C-mPEG, thymosin alpha 1 peptide derivative modified with PEG; PEG40K: branched-chain (mPEG)2-MAL]
activity of promoting the production of IFN-r by T cells ([1]; all experimental concentrations): showed activity
promoting the production of IFN-r by T cells ([1]; compared with PEG-TA1): more effective than the thymosin alpha 1 modified with PEG at the N-terminal
Mean (IFN-γ, ConA-induced cytokine production) ([1]; sample 0.001 ug/ml): 4703
Mean (IFN-γ, ConA-induced cytokine production) ([1]; sample 0.01 ug/ml): 4891
Mean (IFN-γ, ConA-induced cytokine production) ([1]; sample 0.1 ug/ml): 4654
Mean (IFN-γ, ConA-induced cytokine production) ([1]; sample 1 ug/ml): 4990
Mean (IFN-γ, ConA-induced cytokine production) ([1]; sample 10 ug/ml): 5102
Mean (IFN-γ, ConA-induced cytokine production) ([1]; sample 100 ug/ml): 5577
Mean (IL-2, ConA-induced cytokine production) ([2]; sample 0.001 ug/ml): 3409
Mean (IL-2, ConA-induced cytokine production) ([2]; sample 0.01 ug/ml): 3610
Mean (IL-2, ConA-induced cytokine production) ([2]; sample 0.1 ug/ml): 3530
Mean (IL-2, ConA-induced cytokine production) ([2]; sample 1 ug/ml): 3397
Mean (IL-2, ConA-induced cytokine production) ([2]; sample 10 ug/ml): 3618
Mean (IL-2, ConA-induced cytokine production) ([2]; sample 100 ug/ml): 3692

half-life [3]: ~2 h
Compound: CC[C@H](C)[C@H](NC(=O)[C@H](CCC(=O)O)NC(=O)[C@H](CO)NC(=O)[C@H](CO)NC(=O)[C@@H](NC(=O)[C@H](CC(=O)O)NC(=O)[C@@H](NC(=O)[C@H](C)NC(=O)[C@H](C)NC(=O)[C@H](CC(=O)O)NC(=O)[C@H](CO)NC(C)=O)C(C)C)[C@@H](C)O)C(=O)N[C@H](C(=O)N[C@H](C(=O)N[C@@H](CCCCN)C(=O)N[C@@H](CC(=O)O)C(=O)N[C@@H](CC(C)C)C(=O)N[C@@H](CCCCN)C(=O)N[C@@H](CCC(=O)O)C(=O)N[C@@H](CCCCN)C(=O)N[C@@H](CCCCN)C(=O)N[C@@H](CCC(=O)O)C(=O)N[C@H](C(=O)N[C@H](C(=O)N[C@@H](CCC(=O)O)C(=O)N[C@@H](CCC(=O)O)C(=O)N[C@@H](C)C(=O)N[C@@H](CCC(=O)O)C(=O)N[C@@H](CC(N)=O)C(=O)O)C(C)C)C(C)C)[C@@H](C)O)[C@@H](C)O [Zadaxin, thymosin alpha 1] (Ac-SDAAVDTSSEITTKDLKEKKEVVEEAEN-OH)
T1/2 [4]: 2 h

Compound: PEG-TA1: thymosin alpha 1 modified with PEG (derivative when n was 0); b135 calls it modified at the N-terminal (SDAAVDTSSEITTKDLKEKKEVVEEAEN; not fully specified (N-terminus); ends and bridges not checked; also: PEG attached, site unclear; UniProt P06454 2-29, looked up)
stimulation of the production of IFN-r by T cells ([1]; compared with Zadaxin, several experimental concentration): more effective
Mean (IFN-γ, ConA-induced cytokine production) ([1]; sample 0.001 ug/ml): 4809
Mean (IFN-γ, ConA-induced cytokine production) ([1]; sample 0.01 ug/ml): 4603
Mean (IFN-γ, ConA-induced cytokine production) ([1]; sample 0.1 ug/ml): 4141
Mean (IFN-γ, ConA-induced cytokine production) ([1]; sample 1 ug/ml): 4949
Mean (IFN-γ, ConA-induced cytokine production) ([1]; sample 10 ug/ml): 3874
Mean (IFN-γ, ConA-induced cytokine production) ([1]; sample 100 ug/ml): 5467
Mean (IL-2, ConA-induced cytokine production) ([2]; sample 0.001 ug/ml): 3505
Mean (IL-2, ConA-induced cytokine production) ([2]; sample 0.01 ug/ml): 3438
Mean (IL-2, ConA-induced cytokine production) ([2]; sample 0.1 ug/ml): 3339
Mean (IL-2, ConA-induced cytokine production) ([2]; sample 1 ug/ml): 3214
Mean (IL-2, ConA-induced cytokine production) ([2]; sample 10 ug/ml): 3348
Mean (IL-2, ConA-induced cytokine production) ([2]; sample 100 ug/ml): 3582
